Source: ChEMBL document CHEMBL1153553, “Pharmacodynamics of RWJ-54428 against Staphylococcus aureus, Streptococcus pneumoniae, and Enterococcus faecalis in a neutropenic mouse thigh infection model” (Antimicrob Agents Chemother, 2008)

Experiments:
[1] = fT>MIC in neutropenic Swiss mouse thigh model infected with methicillin-resistant Staphylococcus aureus isolate 609 assessed as maximal effect on bacterial count reduction at 1.5 to 200 mg/kg, ip administered 2 hrs postinfection measured after 24 hrs; assay type: functional; settings: dose mg/kg 1.5-200; route intraperitoneal
[2] = fT>MIC in neutropenic Swiss mouse thigh model infected with Streptococcus pneumoniae ATCC 49619 assessed as static effect on bacterial count reduction at 1.5 to 200 mg/kg, ip administered 2 hrs postinfection measured after 24 hrs; assay type: functional; settings: dose mg/kg 1.5-200; route intraperitoneal
[3] = fT>MIC in neutropenic Swiss mouse thigh model infected with Streptococcus pneumoniae ATCC 49619 assessed as 1 log reduction of bacterial count at 1.5 to 200 mg/kg, ip administered 2 hrs postinfection measured after 24 hrs; assay type: functional; settings: dose mg/kg 1.5-200; route intraperitoneal
[4] = fT>MIC in neutropenic Swiss mouse thigh model infected with Streptococcus pneumoniae ATCC 49619 assessed as 2 log reduction of bacterial count at 1.5 to 200 mg/kg, ip administered 2 hrs postinfection measured after 24 hrs; assay type: functional; settings: dose mg/kg 1.5-200; route intraperitoneal
[5] = fT>MIC in neutropenic Swiss mouse thigh model infected with Streptococcus pneumoniae ATCC 49619 assessed as maximal effect on bacterial count reduction at 1.5 to 200 mg/kg, ip administered 2 hrs postinfection measured after 24 hrs; assay type: functional; settings: dose mg/kg 1.5-200; route intraperitoneal
[6] = fT>MIC in neutropenic Swiss mouse thigh model infected with penicillin-resistant Streptococcus pneumoniae SP 019 assessed as static effect on bacterial count reduction at 1.5 to 200 mg/kg, ip administered 2 hrs postinfection measured after 24 hrs; assay type: functional; settings: dose mg/kg 1.5-200; route intraperitoneal
[7] = fT>MIC in neutropenic Swiss mouse thigh model infected with penicillin-resistant Streptococcus pneumoniae SP 019 assessed as 1 log reduction of bacterial count at 1.5 to 200 mg/kg, ip administered 2 hrs postinfection measured after 24 hrs; assay type: functional; settings: dose mg/kg 1.5-200; route intraperitoneal
[8] = fT>MIC in neutropenic Swiss mouse thigh model infected with Enterococcus faecalis ATCC 29212 assessed as static effect on bacterial count reduction at 1.5 to 200 mg/kg, ip administered 2 hrs postinfection measured after 24 hrs; assay type: functional; settings: dose mg/kg 1.5-200; route intraperitoneal
[9] = fT>MIC in neutropenic Swiss mouse thigh model infected with Enterococcus faecalis ATCC 29212 assessed as 1 log reduction of bacterial count at 1.5 to 200 mg/kg, ip administered 2 hrs postinfection measured after 24 hrs; assay type: functional; settings: dose mg/kg 1.5-200; route intraperitoneal
[10] = fT>MIC in neutropenic Swiss mouse thigh model infected with Enterococcus faecalis ATCC 29212 assessed as maximal effect on bacterial count reduction at 1.5 to 200 mg/kg, ip administered 2 hrs postinfection measured after 24 hrs; assay type: functional; settings: dose mg/kg 1.5-200; route intraperitoneal
[11] = fT>MIC in neutropenic Swiss mouse thigh model infected with Enterococcus faecalis EFS 007 assessed as static effect on bacterial count reduction at 1.5 to 200 mg/kg, ip administered 2 hrs postinfection measured after 24 hrs; assay type: functional; settings: dose mg/kg 1.5-200; route intraperitoneal
[12] = fT>MIC in neutropenic Swiss mouse thigh model infected with Enterococcus faecalis EFS 007 assessed as 1 log reduction of bacterial count at 1.5 to 200 mg/kg, ip administered 2 hrs postinfection measured after 24 hrs; assay type: functional; settings: dose mg/kg 1.5-200; route intraperitoneal
[13] = fT>MIC in neutropenic Swiss mouse thigh model infected with Enterococcus faecalis EFS 007 assessed as maximal effect on bacterial count reduction at 1.5 to 200 mg/kg, ip administered 2 hrs postinfection measured after 24 hrs; assay type: functional; settings: dose mg/kg 1.5-200; route intraperitoneal
[14] = Apparent volume of distribution with respect to bioavailability in neutropenic Swiss mouse thigh infection model at 20 mg/kg, ip; assay type: ADME, organism-based; settings: in vivo, read-out: Vc/F
[15] = Apparent volume of distribution with respect to bioavailability in neutropenic Swiss mouse thigh infection model at 100 mg/kg, ip; assay type: ADME, organism-based; settings: in vivo, read-out: Vc/F
[16] = Cmax in neutropenic Swiss mouse thigh infection model at 20 mg/kg, ip; assay type: ADME, organism-based; set-up: dose 20 mg/kg, route intraperitoneal; settings: in vivo
[17] = Cmax in neutropenic Swiss mouse thigh infection model at 100 mg/kg, ip; assay type: ADME, organism-based; set-up: dose 100 mg/kg, route intraperitoneal; settings: in vivo
[18] = Tmax in neutropenic Swiss mouse thigh infection model at 20 mg/kg, ip; assay type: ADME, organism-based; set-up: dose 20 mg/kg, route intraperitoneal; settings: in vivo
[19] = Tmax in neutropenic Swiss mouse thigh infection model at 100 mg/kg, ip; assay type: ADME, organism-based; set-up: dose 100 mg/kg, route intraperitoneal; settings: in vivo
[20] = AUC in neutropenic Swiss mouse thigh infection model at 20 mg/kg, ip; assay type: ADME, organism-based; set-up: dose 20 mg/kg, route intraperitoneal; settings: in vivo
[21] = AUC in neutropenic Swiss mouse thigh infection model at 100 mg/kg, ip; assay type: ADME, organism-based; set-up: dose 100 mg/kg, route intraperitoneal; settings: in vivo
[22] = Clearance with respect to bioavailability in neutropenic Swiss mouse thigh infection model at 20 mg/kg, ip; assay type: ADME, organism-based; settings: in vivo
[23] = Clearance with respect to bioavailability in neutropenic Swiss mouse thigh infection model at 100 mg/kg, ip; assay type: ADME, organism-based; settings: in vivo
[24] = Half life in neutropenic Swiss mouse thigh infection model at 20 mg/kg, ip; assay type: ADME, organism-based; set-up: dose 20 mg/kg, route intraperitoneal; settings: in vivo
[25] = Half life in neutropenic Swiss mouse thigh infection model at 100 mg/kg, ip; assay type: ADME, organism-based; set-up: dose 100 mg/kg, route intraperitoneal; settings: in vivo
[26] = Protein binding in neutropenic Swiss mouse thigh infection model serum at 20 mg/kg, ip by ultrafiltration; assay type: ADME, organism-based; set-up: dose 20 mg/kg, route intraperitoneal; settings: read-out: PB (converted)
[27] = Protein binding in neutropenic Swiss mouse thigh infection model serum at 100 mg/kg, ip by ultrafiltration; assay type: ADME, organism-based; set-up: dose 100 mg/kg, route intraperitoneal; settings: read-out: PB (converted)
Staphylococcus aureus [28] = assay: Antibacterial activity against methicillin-resistant Staphylococcus aureus infected in neutropenic Swiss mouse thigh model assessed as maximal bactericidal effect per thigh at 1.5 to 200 mg/kg, ip administered 2 hrs of postinfection measured after 24 hrs; assay type: functional; settings: dose mg/kg 1.5-200; route intraperitoneal
Streptococcus pneumoniae [29] = assay: Antibacterial activity against Streptococcus pneumoniae infected in neutropenic Swiss mouse thigh model assessed as maximal bactericidal effect per thigh at 1.5 to 200 mg/kg, ip administered 2 hrs of postinfection measured after 24 hrs; assay type: functional; settings: dose mg/kg 1.5-200; route intraperitoneal
Enterococcus faecalis [30] = assay: Antibacterial activity against Enterococcus faecalis infected in neutropenic Swiss mouse thigh model assessed as maximal bactericidal effect per thigh at 1.5 to 200 mg/kg, ip administered 2 hrs of postinfection measured after 24 hrs; assay type: functional; settings: dose mg/kg 1.5-200; route intraperitoneal
Staphylococcus aureus [31] = assay: Antibacterial activity against methicillin-resistant Staphylococcus aureus COL after 24 hrs by broth microdilution method; assay type: functional
Staphylococcus aureus [32] = assay: Antibacterial activity against methicillin-resistant Staphylococcus aureus 076 after 24 hrs by broth microdilution method; assay type: functional; settings: Staphylococcus aureus, 076, 24 h
Staphylococcus aureus [33] = assay: Antibacterial activity against methicillin-resistant Staphylococcus aureus isolate 602 after 24 hrs by broth microdilution method; assay type: functional; settings: isolate 602, 24 h
Staphylococcus aureus [34] = assay: Antibacterial activity against methicillin-resistant Staphylococcus aureus isolate 604 after 24 hrs by broth microdilution method; assay type: functional; settings: isolate 604, 24 h
Staphylococcus aureus [35] = assay: Antibacterial activity against methicillin-resistant Staphylococcus aureus isolate 609 after 24 hrs by broth microdilution method; assay type: functional; settings: isolate 609, 24 h
Streptococcus pneumoniae [36] = assay: Antibacterial activity against Streptococcus pneumoniae ATCC 49619 after 24 hrs by broth microdilution method; assay type: functional; settings: ATCC 49619, 24 h
Streptococcus pneumoniae [37] = assay: Antibacterial activity against penicillin-resistant Streptococcus pneumoniae SP 019 after 24 hrs by broth microdilution method; assay type: functional; settings: SP 019, 24 h
Enterococcus faecalis [38] = assay: Antibacterial activity against Enterococcus faecalis ATCC 29212 after 24 hrs by broth microdilution method; assay type: functional; settings: ATCC 29212, 24 h
Enterococcus faecalis [39] = assay: Antibacterial activity against Enterococcus faecalis EFS 007 after 24 hrs by broth microdilution method; assay type: functional; settings: EFS 007, 24 h
[40] = fT>MIC in neutropenic Swiss mouse thigh model infected with methicillin-resistant Staphylococcus aureus COL assessed as static effect on bacterial count reduction at 1.5 to 200 mg/kg, ip administered 2 hrs postinfection measured after 24 hrs; assay type: functional; settings: dose mg/kg 1.5-200; route intraperitoneal
[41] = fT>MIC in neutropenic Swiss mouse thigh model infected with methicillin-resistant Staphylococcus aureus COL assessed as 1 log reduction of bacterial count at 1.5 to 200 mg/kg, ip administered 2 hrs postinfection measured after 24 hrs; assay type: functional; settings: dose mg/kg 1.5-200; route intraperitoneal
[42] = fT>MIC in neutropenic Swiss mouse thigh model infected with methicillin-resistant Staphylococcus aureus COL assessed as maximal effect on bacterial count reduction at 1.5 to 200 mg/kg, ip administered 2 hrs postinfection measured after 24 hrs; assay type: functional; settings: dose mg/kg 1.5-200; route intraperitoneal
[43] = fT>MIC in neutropenic Swiss mouse thigh model infected with methicillin-resistant Staphylococcus aureus 076 assessed as static effect on bacterial count reduction at 1.5 to 200 mg/kg, ip administered 2 hrs postinfection measured after 24 hrs; assay type: functional; settings: dose mg/kg 1.5-200; route intraperitoneal
[44] = fT>MIC in neutropenic Swiss mouse thigh model infected with methicillin-resistant Staphylococcus aureus 076 assessed as maximal effect on bacterial count reduction at 1.5 to 200 mg/kg, ip administered 2 hrs postinfection measured after 24 hrs; assay type: functional; settings: dose mg/kg 1.5-200; route intraperitoneal
[45] = fT>MIC in neutropenic Swiss mouse thigh model infected with methicillin-resistant Staphylococcus aureus isolate 602 assessed as static effect on bacterial count reduction at 1.5 to 200 mg/kg, ip administered 2 hrs postinfection measured after 24 hrs; assay type: functional; settings: dose mg/kg 1.5-200; route intraperitoneal
[46] = fT>MIC in neutropenic Swiss mouse thigh model infected with methicillin-resistant Staphylococcus aureus isolate 602 assessed as 1 log reduction of bacterial count at 1.5 to 200 mg/kg, ip administered 2 hrs postinfection measured after 24 hrs; assay type: functional; settings: dose mg/kg 1.5-200; route intraperitoneal
[47] = fT>MIC in neutropenic Swiss mouse thigh model infected with methicillin-resistant Staphylococcus aureus isolate 602 assessed as maximal effect on bacterial count reduction at 1.5 to 200 mg/kg, ip administered 2 hrs postinfection measured after 24 hrs; assay type: functional; settings: dose mg/kg 1.5-200; route intraperitoneal
[48] = fT>MIC in neutropenic Swiss mouse thigh model infected with methicillin-resistant Staphylococcus aureus isolate 604 assessed as static effect on bacterial count reduction at 1.5 to 200 mg/kg, ip administered 2 hrs postinfection measured after 24 hrs; assay type: functional; settings: dose mg/kg 1.5-200; route intraperitoneal
[49] = fT>MIC in neutropenic Swiss mouse thigh model infected with methicillin-resistant Staphylococcus aureus isolate 609 assessed as static effect on bacterial count reduction at 1.5 to 200 mg/kg, ip administered 2 hrs postinfection measured after 24 hrs; assay type: functional; settings: dose mg/kg 1.5-200; route intraperitoneal

CS(=O)(=O)O.NCCSCc1cnccc1SC1=C(C(=O)O)N2C(=O)[C@@H](NC(=O)/C(=N\O)c3nc(N)sc3Cl)[C@H]2SC1
fT>MIC [1]: 22% | fT>MIC [2]: 18% | fT>MIC [3]: 21% | fT>MIC [4]: 23% | fT>MIC [5]: 28% | fT>MIC [6]: 16% | fT>MIC [7]: 22% | fT>MIC [8]: 30% | fT>MIC [9]: 48% | fT>MIC [10]: 60% | fT>MIC [11]: 46% | fT>MIC [12]: 56% | fT>MIC [13]: 60% | Vd/F [14]: 0.3 L/kg | Vd/F [15]: 0.44 L/kg | Cmax [16]: 47.3 µg/mL | Cmax [17]: 133 µg/mL | Tmax [18]: 5.4 min | Tmax [19]: 15.6 min | AUC [20]: 16.6 µg·h/mL | AUC [21]: 108 µg·h/mL | CL/F [22]: 1.2 L/h/kg | CL/F [23]: 0.9 L/h/kg | half-life [24]: 10.2 min | half-life [25]: 19.8 min | fraction unbound [26]: 0.4 | fraction unbound [27]: 0.4 | log10cfu (Staphylococcus aureus [28]): -2.83 | log10cfu (Streptococcus pneumoniae [29]): -3.75 | log10cfu (Enterococcus faecalis [30]): -1.65 | MIC (Staphylococcus aureus [31]): 1 mg/L | MIC (Staphylococcus aureus [32]): 1 mg/L | MIC (Staphylococcus aureus [33]): 0.5 mg/L | MIC (Staphylococcus aureus [34]): 0.5 mg/L | MIC (Staphylococcus aureus [35]): 0.5 mg/L | MIC (Streptococcus pneumoniae [36]): 0.03 mg/L | MIC (Streptococcus pneumoniae [37]): 0.5 mg/L | MIC (Enterococcus faecalis [38]): 0.06 mg/L | MIC (Enterococcus faecalis [39]): 0.125 mg/L | fT>MIC [40]: 14% | fT>MIC [41]: 20% | fT>MIC [42]: 36% | fT>MIC [43]: 16% | fT>MIC [44]: 32% | fT>MIC [45]: 17% | fT>MIC [46]: 20% | fT>MIC [47]: 24% | fT>MIC [48]: 20% | fT>MIC [49]: 16%
